What all share (assay type): biochemical
The test system of one test is MYC. Put plainly: In vitro transcription-translation (IVTT) assay, MYC reporter. Conditions: IVTT assay, HeLa S3 lysate, MYC reporter, normalized sfGFP/mCherry ratio; half-log dilutions 30 μM-0.1 μM, 2 hrs at 30° C. The essentials: (§1)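 Reporter: mCherry, P2A, then 3×FLAG-target peptide-sfGFP fusion, IRES-initiated; HeLa S3 lysate IVTT; cpd dilutions 30 μM−0.1 μM half-log in 100% DMSO (dilution-plate conc); DNA added last; 2 h, 30° C; PBS quench.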

The next test relates to CCND1. The test can be described thus: In vitro transcription-translation (IVTT) assay, CCND1 reporter. The note with it: IVTT assay, HeLa S3 lysate, sfGFP/mCherry ratio. The essentials:
as §1

The next test concerns MCL-1. Put plainly: In vitro transcription-translation (IVTT) assay, MCL-1 reporter. The note with it: IVTT assay, HeLa S3 lysate, sfGFP/mCherry ratio; read-out: MCL1 IC50. The essentials:
as §1

For the next test, the system named is CCNTB1. The test can be described thus: In vitro transcription-translation (IVTT) assay, CCNTB1 reporter. The note with it: HeLa S3 lysate, sfGFP/mCherry ratio. How it is done:
In vitro transcription-translation assay setup: Each assay includes a master mix containing lysate and shared components, a 96-well plate containing compound titrations for testing, a 96-well DNA plate with reporter constructs to be tested, 96-well skirted PCR plates, and 96-well flat-bottom, black, fluorescent assay plates. Reaction materials setup: (A) Master mix—15 mL conical tube (3 mL of HeLa S3 Lysate described above; 0.6 mL of ThermoFisher Accessory Proteins (#88882); 1.2 ml of ThermoFisher Reaction Mix (#88882); 0.54 mL of nuclease-free Water); (B) 96-Well Master Mix+Compound Plate (Half-log dilutions (30 μM−0.1 μM) of 4 compounds of interest are prepared in 100% DMSO); 96-Well DNA Plate (Five DNA constructs are plated into single columns within the plate. Row 1 of the column contains nuclease free H2O, all other wells contain 110 ng/μL plasmid DNA). Reactions are started by mixing 155 μL of master mix and 3.5 μL of compound serial dilutions, then 9.1 μL of master mix+compound mixture is aliquoted across 5 96-well plates. Reactions begin with final addition of 2 μL of DNA for a 11.1 μL reaction volume in each well. The entire plate is sealed, and incubated for 2 hrs at 30° C. After 2 hrs, quench the assay using 45 μL of PBS, and transfer 50 μL to a flat-bottom black microplate Quantify the sfGFP and mCherry signals from each well on each plate, taking 3 reads of each plate, and perform data analysis below.
In vitro transcription-translation assay data analysis: Each plate is read three times in channels for both sfGFP and mCherry signals. The average signal across these 3 reads is then calculated for further analysis. Control wells containing no DNA reporter are subtracted from reporter wells in the same column to remove auto-fluorescence of the lysate. Then, the ratio of sfGFP/mCherry is calculated per well, and these ratios are averaged across the triplicate experiments on the same plate. Finally, the ratio of each titration concentration is normalized to the no drug control to create the normalized stalling metric. The error on this measurement is determined by propagating error through the averaging and normalization steps. Values are plotted and fit for IC50 determination for each test sequence and titration of compound.

One may read the IC50 as the concentration at which inhibition is half-maximal.

As to `O=C(NCc1ccccc1)O[C@@H]1[C@@H](O)CN[C@@H]1Cn1cccn1` [V188209, (2R,3S,4S)-4-hydroxy-2-(pyrazol-1-ylmethyl)pyrrolidin-3-yl N-benzylcarbamate], the IC50 in the test on MYC, with CCND1, in the test on MCL-1 and in the test with CCNTB1 was over 30 µM throughout.

As to `O=C(NCc1cccc(F)c1)O[C@@H]1[C@@H](O)CN[C@@H]1Cc1cccnc1` [V190519, (2R,3S,4S)-4-hydroxy-2-(pyridin-3-ylmethyl)pyrrolidin-3-yl N-[(3-fluorophenyl)methyl]carbamate], the IC50 with MYC is 20 to 30 µM; in the test with CCND1 it was over 30 µM; with MCL-1, over 30 µM; in the test on CCNTB1 it was 20 to 30 µM.

On to `COc1ccc(C[C@H]2NC[C@H](O)[C@H]2OC(=O)NCC[C@@H]2CC(F)(F)CN2)cc1` [V190526, (2R,3S,4S)-4-hydroxy-2-[(4-methoxyphenyl)methyl]pyrrolidin-3-yl N-{2-[(2R)-4,4-difluoropyrrolidin-2-yl]ethyl}carbamate], for which the IC50 was 10 to 20 µM with MYC, over 30 µM with CCND1, 10 to 20 µM with MCL-1 and under 10 µM in the test with CCNTB1.

For `O=C(NCc1cccc(F)c1)O[C@@H]1[C@@H](O)CN[C@@H]1Cc1ccc(-c2cnoc2)cc1` [V190543, (2R,3S,4S)-4-hydroxy-2-{[4-(1,2-oxazol-4-yl)phenyl]methyl}pyrrolidin-3-yl N-[(3-fluorophenyl)methyl]carbamate], the IC50 in the test on MYC was under 10 µM; in the test with CCND1, over 30 µM; in the test on MCL-1, over 30 µM; in the test on CCNTB1, 20 to 30 µM.

Take `O=C(NCC[C@@H]1CCCN1)O[C@@H]1[C@@H](O)CN[C@@H]1Cc1ccc(-c2ccc(Cl)s2)cc1` [V191891, (2R,3S,4S)-2-{[4-(5-chlorothiophen-2-yl)phenyl]methyl}-4-hydroxypyrrolidin-3-yl N-{2-[(2S)-pyrrolidin-2-yl]ethyl}carbamate]: the IC50 in the test with MYC is under 10 µM; in the test on CCND1 it was 10 to 20 µM; in the test with MCL-1 it was under 10 µM; in the test on CCNTB1 it was under 10 µM.

As to `COc1ccc(C[C@H]2NC[C@H](O)[C@H]2OC(=O)NCC[C@@H]2CCCNC2)cc1` [V191903, (2R,3S,4S)-4-hydroxy-2-[(4-methoxyphenyl)methyl]pyrrolidin-3-yl N-{2-[(3S)-piperidin-3-yl]ethyl}carbamate], the IC50 in the test with MYC was under 10 µM; in the test with CCND1, 10 to 20 µM; in the test on MCL-1, under 10 µM; in the test with CCNTB1, under 10 µM.

For `COc1ccc(C[C@H]2NC[C@H](O)[C@H]2OC(=O)NCC[C@]2(C)CCCN2)cc1` [V191921, (2R,3S,4S)-4-hydroxy-2-[(4-methoxyphenyl)methyl]pyrrolidin-3-yl N-{2-[(2S)-2-methylpyrrolidin-2-yl]ethyl}carbamate], the IC50 was under 10 µM in the test with MYC, 10 to 20 µM in the test with CCND1, under 10 µM in the test on MCL-1 and under 10 µM in the test on CCNTB1.

Regarding `COc1ccc(C[C@H]2NC[C@H](O)[C@H]2OC(=O)NCc2cc(F)c(O)c(F)c2)cc1` [V191939, (2R,3S,4S)-4-hydroxy-2-[(4-methoxyphenyl)methyl]pyrrolidin-3-yl N-[(3,5-difluoro-4-hydroxyphenyl)methyl]carbamate], the IC50 with MYC is 10 to 20 µM; with CCND1 it was 10 to 20 µM; in the test on MCL-1 it was under 10 µM; with CCNTB1, under 10 µM.

Take `COc1ccc(C[C@H]2NC[C@H](O)[C@H]2OC(=O)NCCN2CCCS2(=O)=O)cc1` [V191944, (2R,3S,4S)-4-hydroxy-2-[(4-methoxyphenyl)methyl]pyrrolidin-3-yl N-[2-(1,1-dioxo-1lambda6,2-thiazolidin-2-yl)ethyl]carbamate]: the IC50 in the test with MYC is under 10 µM; with CCND1 it was 10 to 20 µM; in the test on MCL-1 it was under 10 µM; with CCNTB1, under 10 µM.

On to `O=C(NCC[C@@H]1CCCN1)O[C@@H]1[C@@H](O)CN[C@@H]1Cc1ccc(-c2ccc3c(c2)CC(F)(F)C3)cc1` [V191961, (2R,3S,4S)-2-{[4-(2,2-difluoro-1,3-dihydroinden-5-yl)phenyl]methyl}-4-hydroxypyrrolidin-3-yl N-{2-[(2S)-pyrrolidin-2-yl]ethyl}carbamate], for which the IC50 in the test on MYC is 10 to 20 µM; in the test on CCND1, 10 to 20 µM; in the test on MCL-1, under 10 µM; in the test with CCNTB1 it was under 10 µM.

For `COc1ccc(C[C@H]2NC[C@H](O)[C@H]2OC(=O)N[C@@H](C)c2ccccc2)cc1` [V191971, (2R,3S,4S)-4-hydroxy-2-[(4-methoxyphenyl)methyl]pyrrolidin-3-yl N-[(1S)-1-phenylethyl]carbamate], the IC50 was 10 to 20 µM in the test with MYC, over 30 µM in the test with CCND1, 20 to 30 µM in the test on MCL-1 and 10 to 20 µM in the test on CCNTB1.

On to `COc1ccc(C[C@H]2NC[C@H](O)[C@H]2OC(=O)NCCC2(N)CC2)cc1` [V191989, (2R,3S,4S)-4-hydroxy-2-(4-methoxybenzyl)pyrrolidin-3-yl (2-(1-aminocyclopropyl)ethyl)carbamate], for which the IC50 in the test on MYC, with CCND1 and in the test with CCNTB1 was under 10 µM in each case.

Consider `O=C(NCC[C@H]1CCCN1)O[C@@H]1[C@@H](O)CN[C@@H]1Cc1ccc(-c2ccccc2)cc1` [V192036, (2R,3S,4S)-2-{[1,1′-biphenyl]-4-ylmethyl}-4-hydroxypyrrolidin-3-yl N-{2-[(2R)-pyrrolidin-2-yl]ethyl}carbamate], for which the IC50 was under 10 µM in the test with MYC, 10 to 20 µM with CCND1 and under 10 µM with CCNTB1.

As to `O=C(NCC[C@H]1CCCN1)O[C@@H]1[C@@H](O)CN[C@@H]1Cc1ccc(-c2ccc(F)c(F)c2)cc1` [V192037, (2R,3S,4S)-2-({3′,4′-difluoro-[1,1′-biphenyl]-4-yl}methyl)-4-hydroxypyrrolidin-3-yl N-{2-[(2R)-pyrrolidin-2-yl]ethyl}carbamate], the IC50 was 10 to 20 µM in the test on MYC and under 10 µM in the test on CCNTB1.

Regarding `O=C(NCC[C@H]1CCCN1)O[C@@H]1[C@@H](O)CN[C@@H]1Cc1ccc(-c2ccc(C(F)(F)F)cc2)cc1` [V192038, (2R,3S,4S)-4-hydroxy-2-{[4′-(trifluoromethyl)-[1,1′-biphenyl]-4-yl]methyl}-pyrrolidin-3-yl N-{2-[(2R)-pyrrolidin-2-yl]ethyl}carbamate; Trifluoroacetic Acid], the IC50 with MYC, in the test on CCND1 and in the test with CCNTB1 was over 30 µM throughout.

Take `O=C(NCC[C@H]1CCCN1)O[C@@H]1[C@@H](O)CN[C@@H]1Cc1ccc(-c2ccc(S(F)(F)(F)(F)F)cc2)cc1` [V192039, (2R,3S,4S)-4-hydroxy-2-{[4′-(pentafluoro-lambda6-sulfanyl)-[1,1′-biphenyl]-4-yl]methyl}pyrrolidin-3-yl N-{2-[(2R)-pyrrolidin-2-yl]ethyl}carbamate]: the IC50 with MYC, with CCND1 and in the test on CCNTB1 was over 30 µM throughout.

`O=C(NCC[C@H]1CCCN1)O[C@@H]1[C@@H](O)CN[C@@H]1Cc1ccc(-c2ccc3c(c2)CC(F)(F)C3)cc1` [V192040, (2R,3S,4S)-2-{[4-(2,2-difluoro-1,3-dihydroinden-5-yl)phenyl]methyl}-4-hydroxypyrrolidin-3-yl N-{2-[(2R)-pyrrolidin-2-yl]ethyl}carbamate]: the IC50 in the test on MYC was 10 to 20 µM; with CCND1 it was 20 to 30 µM; in the test on MCL-1 it was 10 to 20 µM; with CCNTB1 it was under 10 µM.

As to `COc1ccc(C[C@H]2NC[C@H](O)[C@H]2OC(=O)NCC[C@@]2(C)CCCN2)cc1` [V192041, (2R,3S,4S)-4-hydroxy-2-(4-methoxybenzyl)pyrrolidin-3-yl (2-((R)-2-methylpyrrolidin-2-yl)ethyl)carbamate], the IC50 in the test on MYC is under 10 µM; with CCND1, 10 to 20 µM; in the test on MCL-1, under 10 µM; in the test with CCNTB1, under 10 µM.

Take `COc1ccc(C[C@H]2NC[C@H](O)[C@H]2OC(=O)NCC[C@H]2CCCN2C)cc1` [V192042, (2R,3S,4S)-4-hydroxy-2-[(4-methoxyphenyl)methyl]pyrrolidin-3-yl N-{2-[(2R)-1-methylpyrrolidin-2-yl]ethyl}carbamate]: the IC50 in the test on MYC is over 30 µM; with CCND1 it was over 30 µM; in the test on MCL-1, over 30 µM; in the test on CCNTB1, 20 to 30 µM.

Values taken from patent US20250129021A1, “SMALL MOLECULE PROTEIN SYNTHESIS MODULATORS” (Interdict Bio, Inc., priority 2023, published 2025).
